Marks after values point to notes of the source that are not given here. Ends that are not written are not given here.
Assays:
MCF-7 = test: Wound-healing (motility) assay, MCF-7; type: cell-based, human; conditions: for Relative activity: unit assumed; for Migrating cells: 18-24 h
Description: MCF-7, MDA-MB-23 1, and MDA-MB-468 breast tumor cell lines or HECs were seeded onto sterile glass coverslips in Petri dishes or six-well plates. When the cells were 70-80% confluent, the monolayers were scratched with a sterile plastic pipet tip.
Inhibitor concentrations were 50 μM PD98059 (PD98) (mitogen activated protein kinase-kinase 1 [MEK1] inhibitor), 5 nM Wortmannin (phosphatidyl inositol 3 kinase [PI3K] inhibitor), or human recombinant soluble Flt-1 (sFlt-1) (R&D Systems). […] Cells were pre-incubated with PD98 and Wortmannin for 15-30 min before addition of PlGF. Stained (Wright-Giemsa) and mounted coverslips were examined microscopically. Five to ten 100× fields were evaluated by counting the number of cells separated from the wound edges and which appeared to be migrating toward the center of the wound. Results are reported as the average number of cells migrating into the wound/100× field. In some cases data from separate experiments were combined to accommodate inclusion of various treatments in the tables.
Antibody concentration was 1 μg/ml. MEK1 inhibitor, PD98059 (PD98), 50 μM. PI3K inhibitor, Wortmannin, 5 nM. […] Values for antibody and inhibitor treatments were from separate experiments which included all relevant controls. […] UT denotes untreated controls. *P<0.01 (ANOVA) compared to UT; † P<0.02 (ANOVA) compared to PlGF only. ‡ P<0.001 (ANOVA) compared to PlGF only.

[1] = system: MDA-MB-231 s.c. xenograft; test: Subcutaneous MDA-MB-231 xenograft growth and lung metastasis; type: in vivo, nude mice
Description: The tissue-culture-grown human breast tumor cell line, MDA-MB-231, was implanted subcutaneously (s.c.) on the flanks of nude mice. When tumors were visible, the mice were weighed and the tumors measured. Treatment with peptides was begun when tumors averaged about 0.06-0.12 cm^3 in volume. Mice were treated with 200-μg peptide in PBS by i.p. injection at 3-4-day intervals for 4 weeks. Animals were weighed and the tumors measured at each treatment. In a second experiment, the control peptide, CPA, was included. Three days after the final treatment, tumors and lungs were harvested. Tumor burden of the lungs (from experiment 1) was determined by counting colonies (<20 cells), clusters (>20-100 cells), and nodules (>100 cells) seen in all the lung tissue on a total of 4 slides or sections for each mouse. Data are presented as the average number of each size of metastasis for each treatment group (3-4 mice/group). The total number of each was summed for each treatment group, and divided by the total number of mice in that group. The percent inhibition for metastasis was determined by the formula: % inhibition=(# mock-treated−# treated/# mock-treated)×100.
To test for therapeutic activity of the peptide, BP1, mice were implanted with human breast cancer cells, MDA-MB-231, which produces lung metastases spontaneously when implanted as a subcutaneous tumor. When the tumors averaged 0.12 cm^3 in volume, either mock-treatment or therapy with BP1 was initiated at 200 μg, two times per week for 4 weeks. […] In a subsequent experiment, treatment was commenced when tumors were 0.07-0.08 cm^3. After 4 weeks of treatment, as described, the mean volume of the mock- and CPA-treated tumors was 0.25 and 0.33 cm^3, respectively, whereas BP1-treated tumors averaged 0.04 cm^3 (P<0.05 BP1 vs. mock- or CPA-treated tumors) (FIG. 3A).

## SHRYRLAIQLHASDSSSSCV [BP1]
MCF-7; PlGF 2 nM ± test agent, relative to PlGF-only value
  Relative activity: 45%
MCF-7; VEGF 2 nM ± test agent, relative to VEGF-only value
  Relative activity: 102%
MCF-7; antibody 1 μg/ml, peptide 2 μM
  effect on PlGF-stimulated motility (in words): inhibited
MCF-7; growth factor PlGF 2 nM ± test agent (Flt-1 2 nM, peptide 2 μM, antibody 1 μg/ml)
  Migrating cells: 10.2 ± 7.8† cells/100× field
MCF-7; growth factor VEGF 2 nM ± test agent
  Migrating cells: 12.9 ± 2.9 cells/100× field
[1]; start at 0.12 cm^3, 200 μg two times per week for 4 weeks
  reduction in tumor size compared to mock-treated controls: 37%
[1]; subsequent experiment, start at 0.07-0.08 cm^3, 200 μg i.p., mock 0.25
  mean tumor volume after 4 weeks of treatment: 0.04 cm^3
[1]; total lung tissue/mouse, mock 36±6
  lung colonies (<20 cells) per mouse: 5±2
[1]; total lung tissue/mouse, mock 76±19
  lung clusters (>20-100 cells) per mouse: 9±2
[1]; total lung tissue/mouse, mock 78±25
  lung nodules (>100 cells) per mouse: 5±2
[1]; vs mock-treated
  decrease in the number of metastatic lung nodules: 94%

Reference: US7642239B2, “Inhibition of placenta growth factor (PLGF) mediated metastasis and/or angiogenesis” (Center for Molecular Medicine and Immunology, priority 2005, dated 2010)
